# According to PubChem BioAssay AID1671243:
# Target: Casein kinase I isoform alpha (Homo sapiens) (UniProt P48729)
# Assay: CSNK1A1 kinase inhibitors, dose response, biochemical, Z'-LYTE, FRET, direct format (AID 1671243)
# Details: Z'-LYTE FRET kinase activity assay
# Sequence of Casein kinase I isoform alpha (Homo sapiens) (P48729 whole entry, looked up, canonical isoform): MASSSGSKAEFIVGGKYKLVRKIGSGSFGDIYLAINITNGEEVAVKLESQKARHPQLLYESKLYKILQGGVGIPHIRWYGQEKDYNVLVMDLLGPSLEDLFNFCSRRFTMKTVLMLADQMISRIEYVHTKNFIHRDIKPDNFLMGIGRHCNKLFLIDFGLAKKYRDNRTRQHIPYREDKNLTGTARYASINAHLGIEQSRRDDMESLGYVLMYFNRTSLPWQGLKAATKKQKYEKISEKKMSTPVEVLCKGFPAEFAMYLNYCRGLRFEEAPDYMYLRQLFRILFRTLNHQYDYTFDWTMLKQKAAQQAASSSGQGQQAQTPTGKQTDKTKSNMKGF
structure (smiles),measurement,value
Brc1c(Br)c(Br)c2n[nH]nc2c1Br,IC50,17.6 µM
